Test results taken from patent US20160011174A1, “Assay for Determining the Cell Number in Cultured Cells” (KEELE UNIVERSITY, priority 2013, published 2016).
Blank lines part the entries; values can stand above or below the molecule they belong to.

Legend:
hepG2 cells [1] = experiment: SIFT-MS headspace DMS in hepG2 cultures (DMSO reduction to DMS); format: cell-based, human
Procedure: (§1) Human mesenchymal stem cells, hMSCs, are a primary cell type, and were isolated from a bone marrow aspirate sample (person; Lonza, US) using the plastic-adherence methodology and the hepG2 cells are of a human hepatocellular carcinoma cell line (Eton Bioscience, US), a cell line commonly used for the study of liver function. In both cases, the cells were cultured to confluence in Dulbecco's modified Eagle's medium (DMEM; Lonza, UK), supplemented with 10% v/v foetal bovine serum (FBS; Lonza, UK), 50 U mL^−1 penicillin-streptomycin (Lonza, UK) and 2 mM L-glutamine (Lonza, UK). The hMSCs additionally contained 1% v/v non-essential amino acids. The hMSCs were not cultured beyond passage number 4, whereas the well-differentiated hepG2 cells were analysed before passage number 20.
(§2) The inhibitor solutions were then added to volumes of medium so that the final DMSO concentration was always 0.1% v/v (or ˜14 500 μM). In some experiments, inhibitors were added to hMSCs during routine culture, some 24 hours prior to proceeding to the next phase of the analysis, but this pre-treatment was not employed in the hepG2 experiments. […] The importance of precursor ions in the analysis is explained further in the SIFT-MS section below. The method used for the preparation of cell cultures for SIFTMS headspace analysis was adapted from the previous studies published in 2003 (ref. 21) and 2009 (ref. 22). On the evening prior to the analysis, the cells were removed from the tissue culture flasks using trypsin, counted using a haemocytometer, and suspended in fresh DMEM media containing the ALDH inhibitor where appropriate, inside 150 mL glass bottles. […] The headspace of each bottle was purged with dry cylinder air before the bottles were finally sealed with metal caps, which incorporate rubber septa, and placed inside an incubator to be held at 37° C. for around 16 hours/overnight.
(§3) The methodology of SIFT-MS analyses for the sampling and quantification of compounds in the headspace of liquid samples has been described in detail previously (Refs 21,22,27-32). […] The product ions and the precursor ions are then analysed by a quadrupole mass spectrometer/detection system. Throughout the present study the instrument was operated in the multiple ion monitoring (MIM) mode, during which the desired precursor ion and its hydrates (Ref 33) and the characteristic product ions, are continuously monitored. […] In brief, AA was analysed using H3O^+ precursor ions and the unique protonated AA characteristic product ion at m/z 45, as described in detail in a recent paper (Ref 36). […]

[2] = system: Caco2/TC7 colon tumour cell cultures; conditions: cited from earlier work
hepG2 cells [3] = experiment: Live-dead staining viability after sealed bottle incubation; format: cell-based, human; conditions: 1.5(10^7) hepG2 cells sealed 16 hours; 200 μM DEAB or 20 μM DSF
Procedure: In order to assess any changes in the viability of hepG2 cells due to the method of analysis, which requires the cells to be sealed inside a glass bottle for around 16 hours, cells were cultured to near-confluence using the untreated medium described earlier, and observed using a live-dead staining (Sigma, UK), and confocal microscopy. […] The cell-suspensions were then sealed inside 150 mL glass bottles and incubated at 37° C. for 16 hours. The suspensions were then removed from the bottles and assessed by the same live-dead staining.

hMSCs = experiment: SIFT-MS headspace DMS in hMSC cultures (DMSO reduction to DMS); format: cell-based, human; conditions: approximately 5(10^6) hMSCs, 24 hours pre-treatment plus 16 hours sealed incubation, 0.1% v/v DMSO
Procedure: as §1
(§4) The inhibitor solutions were then added to volumes of medium so that the final DMSO concentration was always 0.1% v/v (or ˜14 500 μM). […] On the evening prior to the analysis, the cells were removed from the tissue culture flasks using trypsin, counted using a haemocytometer, and suspended in fresh DMEM media containing the ALDH inhibitor where appropriate, inside 150 mL glass bottles. […]
(§5) The methodology of SIFT-MS analyses for the sampling and quantification of compounds in the headspace of liquid samples has been described in detail previously (Refs 21,22,27-32). […]

ALDH [4] = experiment: SIFT-MS headspace acetaldehyde (AA) in hepG2 cultures with ALDH inhibitors; format: cell-based, human
Procedure: as §1
as §4, with “μM). In some experiments, inhibitors were added to hMSCs during routine culture, some 24 hours prior to proceeding to the next phase of the analysis, but this pre-treatment was not employed in the hepG2 experiments.” for “μM).”
as §3

ALDH [5] = experiment: SIFT-MS headspace AA in hMSC cultures with ALDH inhibitors; format: cell-based, human; conditions: approximately 5(10^6) hMSCs, 24 hours pre-treatment plus 16 hours sealed incubation
Procedure: as §1, §4, §5

hepG2 cells [6] = experiment: Removal of added AA from DMEM medium by hepG2 cells (SIFT-MS headspace); format: in vitro ADME, human; conditions: 20 million hepG2 cells; for headspace AA concentration after incubation with cells: 16 hours
Procedure: as §2
The methodology of SIFT-MS analyses for the sampling and quantification of compounds in the headspace of liquid samples has been described in detail previously (Refs 21,22,27-32). […] The product ions and the precursor ions are then analysed by a quadrupole mass spectrometer/detection system. Throughout the present study the instrument was operated in the multiple ion monitoring (MIM) mode, during which the desired precursor ion and its hydrates (Ref 33) and the characteristic product ions, are continuously monitored. This system, in combination with the previously compiled kinetics data for the reactions between the precursor ions and neutral molecules (Refs 34,35 rapidly allows the simultaneous absolute quantification of the concentrations of several selected volatile compounds of interest. The simultaneous detection and analysis of AA and DMS in a mixture presents a peculiar problem to SIFT-MS because of the overlap of characteristic product ions on which the analysis depends. However, the ion chemistry involved has been studied in detail and the kinetics database entries required for the accurate analyses of these two compounds by SIFT-MS have been constructed by following the guidelines given by previous studies (refs 34,35). In brief, AA was analysed using H3O^+ precursor ions and the unique protonated AA characteristic product ion at m/z 45, as described in detail in a recent paper (Ref 36). […]
Removal of AA from DMEM medium by cellular action. […] Identical medium samples without cells were also analysed (as described above) to obtain the starting (background) headspace AA concentration. […]

[7] = 200 μM DEAB, about 1(10^7) hepG2 cells, 16 hours

SMILES: C[S+](C)[O-] [DMSO, dimethyl sulphoxide]
- liquid phase DMS concentration formed from DMSO (hepG2 cells [1]; 0.1% v/v DMSO in medium, overnight incubation, by Henry's Law): > 300 nM
- DMSO concentration causing no observable cytotoxicity [2]: up to 10 % (v/v)

SMILES: CCN(CC)c1ccc(C=O)cc1 [DEAB]
- viability by live-dead staining (hepG2 cells [3]): little or no decline in the viability
- effect on DMS production from DMSO (hMSCs): effective at preventing DMS production from DMSO
- peak AA concentration in the liquid phase (ALDH [4]; [7]): 4 µM
- peak headspace AA concentration (ALDH [4]; [7]): around 600 ppbv
- headspace AA concentration with increasing DEAB concentration (ALDH [4]; 1.5(10^7) hepG2 cells, 16 hours at 37° C., DEAB in 0.1% v/v DMSO): general increase in the AA concentration
- effect on ALDH / ability of hMSCs to metabolise AA (ALDH [5]): effective inhibitor of ALDH
- decline in headspace DMS (hepG2 cells [1]; 0 to 25 μM DEAB, 1.5(10^7) hepG2 cells, 0.1% v/v DMSO): 30%
- DMS production (hepG2 cells [1]; 200 μM DEAB, 1(10^4) to 5(10^6) hepG2 cells, 0.1% v/v DMSO): clearly reduced
- decline of slope of DMS concentration versus cell number (hepG2 cells [1]; 200 μM DEAB, 5(10^6) up to 3(10^7) hepG2 cells, 0.1% v/v DMSO): about 30%

- reduction of headspace AA concentration by cells (hepG2 cells [6]; 50 mL DMEM, 16 hours at 37° C.): approximately 90%
- headspace AA concentration after incubation with cells (hepG2 cells [6]; starting 59 ppbv): 20 ppbv
- headspace AA concentration after incubation with cells (hepG2 cells [6]; starting 396 ppbv): 48 ppbv
- headspace AA concentration after incubation with cells (hepG2 cells [6]; starting 990 ppbv): 118 ppbv
SMILES: CC=O [AA, acetaldehyde]
